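Briefly, cells in 96-well plates were exposed to five compound concentrations for 48 h, and endpoints were estimated by linear interpolation. TGI: concentration producing complete growth inhibition.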
Columns and labels:
Test in all cases: DTP human tumour cell line panel, 48 h
HCT-116 colon = system: HCT-116 colon
MDA-N = system: MDA-N
K-562 leukemia = system: K-562 leukemia
UACC-257 melanoma = system: UACC-257 melanoma
DU-145 prostate = system: DU-145 prostate
PC-3 prostate = system: PC-3 prostate
OVCAR-8 ovarian = system: OVCAR-8 ovarian
SK-MEL-28 melanoma = system: SK-MEL-28 melanoma
MDA-MB-435 = system: MDA-MB-435
NCI-H522 lung = system: NCI-H522 lung
NCI-H460 lung = system: NCI-H460 lung
NCI/ADR-RES ovarian = system: NCI/ADR-RES ovarian
SK-MEL-2 melanoma = system: SK-MEL-2 melanoma
SNB-19 CNS = system: SNB-19 CNS
SK-MEL-5 melanoma = system: SK-MEL-5 melanoma
RXF 393 renal = system: RXF 393 renal
SK-OV-3 ovarian = system: SK-OV-3 ovarian
ACHN renal = system: ACHN renal
RPMI-8226 leukemia = system: RPMI-8226 leukemia
BT-549 breast = system: BT-549 breast

SMILES | TGI (HCT-116 colon) | TGI (MDA-N) | TGI (K-562 leukemia) | TGI (UACC-257 melanoma) | TGI (DU-145 prostate) | TGI (PC-3 prostate) | TGI (OVCAR-8 ovarian) | TGI (SK-MEL-28 melanoma) | TGI (MDA-MB-435) | TGI (NCI-H522 lung) | TGI (NCI-H460 lung) | TGI (NCI/ADR-RES ovarian) | TGI (SK-MEL-2 melanoma) | TGI (SNB-19 CNS) | TGI (SK-MEL-5 melanoma) | TGI (RXF 393 renal) | TGI (SK-OV-3 ovarian) | TGI (ACHN renal) | TGI (RPMI-8226 leukemia) | TGI (BT-549 breast)
CC(C)(C)C(=O)Oc1ccc(/C=C/C(=O)c2ccc(OC(=O)C(C)(C)C)cc2)cc1 | 71.4 µM | > 100 µM | 86.7 µM | > 100 µM | > 100 µM | > 100 µM | > 100 µM | > 100 µM | > 100 µM | 8.78 µM | > 100 µM | > 100 µM | > 100 µM | > 100 µM | > 100 µM | 87.3 µM | > 100 µM | > 100 µM | – | –
CC[C@@H](CCCCC1CC[C@H]2CC(=O)C[C@@H]12)OC (stereo not given in full) | > 100 µM | > 100 µM | 80.1 µM | > 100 µM | > 100 µM | > 100 µM | > 100 µM | > 100 µM | > 100 µM | > 100 µM | > 100 µM | > 100 µM | > 100 µM | > 100 µM | > 100 µM | > 100 µM | > 100 µM | > 100 µM | > 100 µM | –
O=c1oc(-c2ccc(O)cc2)cc2cc(O)ccc12 | 39 µM | – | 39.8 µM | > 100 µM | > 100 µM | 94 µM | > 100 µM | – | 78.9 µM | > 100 µM | 58.2 µM | 47.9 µM | > 100 µM | 93.6 µM | 30.2 µM | 54.4 µM | 74.9 µM | > 100 µM | > 100 µM | 62.1 µM
O=c1[nH]nc(Cc2ccccc2)n1/N=C/c1ccco1 | > 100 µM | – | > 100 µM | > 100 µM | > 100 µM | > 100 µM | > 100 µM | > 100 µM | > 100 µM | – | > 100 µM | > 100 µM | > 100 µM | > 100 µM | – | > 100 µM | > 100 µM | > 100 µM | > 100 µM | > 100 µM
O=C1C[C@@]23CCC4(CC2CCC[C@H]3O1)OCCO4 (stereo not given in full) | > 100 µM | > 100 µM | > 100 µM | > 100 µM | > 100 µM | > 100 µM | > 100 µM | > 100 µM | > 100 µM | > 100 µM | > 100 µM | > 100 µM | > 100 µM | > 100 µM | > 100 µM | > 100 µM | > 100 µM | > 100 µM | > 100 µM | –
O=c1cc(-c2ccccc2)[nH]c2cc(F)cc(F)c12 | > 100 µM | – | > 100 µM | > 100 µM | – | – | > 100 µM | > 100 µM | – | 35.3 µM | > 100 µM | – | 84.4 µM | – | > 100 µM | 81.7 µM | > 100 µM | > 100 µM | > 100 µM | –
COC(=O)CCC1(CCC(=O)OC)CCCCCCC(CCC(=O)OC)(CCC(=O)OC)C(=O)C1=O | > 100 µM | > 100 µM | > 100 µM | > 100 µM | > 100 µM | > 100 µM | > 100 µM | > 100 µM | > 100 µM | > 100 µM | > 100 µM | > 100 µM | > 100 µM | > 100 µM | > 100 µM | > 100 µM | > 100 µM | > 100 µM | > 100 µM | –
COc1ccc(-c2c(-c3ccc(OC)cc3)n3c(=O)n(C)c(=O)n23)cc1 | > 100 µM | – | > 100 µM | > 100 µM | 65.2 µM | > 100 µM | 52.9 µM | > 100 µM | > 100 µM | > 100 µM | – | 89.9 µM | > 100 µM | 97.7 µM | > 100 µM | > 100 µM | > 100 µM | > 100 µM | > 100 µM | –
COc1cc(/C=N/N=C(\N)NO)cc(OC)c1OC | > 100 µM | – | 49.2 µM | > 100 µM | > 100 µM | > 100 µM | 37.9 µM | > 100 µM | > 100 µM | 80.6 µM | > 100 µM | 36.3 µM | > 100 µM | > 100 µM | 44.7 µM | > 100 µM | > 100 µM | 72 µM | > 100 µM | –
CCOC(=O)c1sc2c(c1OC(=O)c1cc(OC)c(OC)c(OC)c1)c(=O)n(-c1ccccc1)c(=S)n2-c1ccccc1 | > 100 µM | > 100 µM | > 100 µM | > 100 µM | > 100 µM | > 100 µM | > 100 µM | > 100 µM | > 100 µM | 63.1 µM | > 100 µM | > 100 µM | – | > 100 µM | > 100 µM | > 100 µM | > 100 µM | > 100 µM | > 100 µM | –
O=Cc1ccc(OC[C@H]2COC(=O)N2)cc1 | > 100 µM | – | > 100 µM | > 100 µM | > 100 µM | > 100 µM | > 100 µM | > 100 µM | > 100 µM | > 100 µM | > 100 µM | > 100 µM | > 100 µM | > 100 µM | > 100 µM | > 100 µM | > 100 µM | > 100 µM | – | > 100 µM
COC(=O)C1Cc2c(OC)ccc(OC)c2C(O)C1C(=O)OC (stereo not given) | > 100 µM | > 100 µM | > 100 µM | > 100 µM | > 100 µM | > 100 µM | > 100 µM | > 100 µM | > 100 µM | > 100 µM | > 100 µM | > 100 µM | > 100 µM | > 100 µM | > 100 µM | > 100 µM | – | > 100 µM | > 100 µM | –
CCOP(=O)(OCC)/C(C#N)=C/c1ccccn1 | > 100 µM | > 100 µM | > 100 µM | > 100 µM | > 100 µM | – | > 100 µM | > 100 µM | > 100 µM | > 100 µM | > 100 µM | > 100 µM | – | > 100 µM | > 100 µM | > 100 µM | > 100 µM | > 100 µM | > 100 µM | –
Cc1ccc(S(=O)C[C@](NC(=O)OCc2ccccc2)(Sc2ccccc2)C(F)F)cc1 (stereo not given in full) | 34.8 µM | – | > 100 µM | 31.5 µM | 45.6 µM | 74.2 µM | 48.5 µM | 38.1 µM | 79.6 µM | 22.4 µM | 42.2 µM | 54.6 µM | 71.6 µM | 31.3 µM | 28 µM | 79.5 µM | 36 µM | 45.5 µM | 45 µM | 50.9 µM
CC1(C)OC(=S)N(c2ccccc2)C12C=Cc1cc3ccccc3nc1S2 (stereo not given) | > 100 µM | – | > 100 µM | > 100 µM | – | – | > 100 µM | > 100 µM | – | > 100 µM | > 100 µM | – | > 100 µM | > 100 µM | > 100 µM | > 100 µM | > 100 µM | > 100 µM | > 100 µM | –
CC(C)(C)OC(=O)N1NC(c2ccccc2)CC1c1ccccc1 (stereo not given) | > 100 µM | > 100 µM | > 100 µM | > 100 µM | > 100 µM | – | > 100 µM | – | 65.3 µM | > 100 µM | > 100 µM | 47.9 µM | – | – | 45.5 µM | 58.4 µM | > 100 µM | 68.6 µM | > 100 µM | –
Cc1cccc2oc3c(c(=O)c12)CC(O)C(C)(C)O3 (stereo not given) | > 100 µM | > 100 µM | > 100 µM | > 100 µM | > 100 µM | > 100 µM | – | > 100 µM | > 100 µM | 87.5 µM | > 100 µM | > 100 µM | > 100 µM | > 100 µM | > 100 µM | > 100 µM | > 100 µM | > 100 µM | > 100 µM | –
COc1cc(C(=O)Oc2c(C(C)=O)sc3c2c(=O)n(-c2ccccc2)c(=S)n3-c2ccccc2)cc(OC)c1OC | 36.2 µM | 57 µM | > 100 µM | 68.3 µM | 50.6 µM | 48.8 µM | 53.7 µM | 49.5 µM | 54.8 µM | 4.53 µM | 29.8 µM | 43.5 µM | – | 68 µM | 32.1 µM | 41.6 µM | > 100 µM | 66 µM | 59.9 µM | –
COc1ccc2cc(CNCCCCCCCCNCc3ccc4cc(OC)ccc4c3)ccc2c1 | > 100 µM | – | 47.7 µM | 10.1 µM | > 100 µM | 6.91 µM | – | 9.8 µM | 9.83 µM | 69.4 µM | 33.9 µM | > 100 µM | 24.7 µM | 7.83 µM | > 100 µM | > 100 µM | – | 10.3 µM | 12.2 µM | 9.97 µM
Cn1c(=Nc2ccc(Cl)cc2)sc2ccccc21 | > 100 µM | – | > 100 µM | > 100 µM | > 100 µM | > 100 µM | > 100 µM | > 100 µM | > 100 µM | 35 µM | > 100 µM | > 100 µM | > 100 µM | > 100 µM | > 100 µM | > 100 µM | > 100 µM | > 100 µM | > 100 µM | –
C1CCCCC2(CCCCCCCCC3(CCC1)SCCS3)SCCS2 | > 100 µM | > 100 µM | > 100 µM | > 100 µM | > 100 µM | > 100 µM | > 100 µM | > 100 µM | > 100 µM | > 100 µM | > 100 µM | > 100 µM | > 100 µM | > 100 µM | > 100 µM | – | > 100 µM | > 100 µM | – | –

— PubChem BioAssay (NCI)
